Assay results from US7425548B2, “Materials and methods for immune system stimulation” (Variety Chidren's Hospital, priority 2004, dated 2008).
Several values for one entry are separate records, joined by “and”; a condition that tells them apart may be missing. Identical values can stand only once.

Tests used:
[1] = test system: NF-κB in RAW264.7 macrophages; experiment: NF-κB DNA binding activity of nuclear extracts (ELISA, EMSA); type: cell-based, mouse
Experimental: The macrophages were treated with 100 μg/ml of RR1 and NF-κB activity of the nuclear extracts analyzed at 2, 4, 8, 14, and 20 hours after incubation using ELISA protocol.
NF-κB activity increased with escalating doses of RR1, reaching a plateau at 500 μg/ml.
NF-κB activity. RAW264.7 cells were incubated with 0, 100, 500 and 1000 μg/ml of RR1 for 8 hours and the nuclear proteins were extracted using the NF-κB activity kit from Active Motif, CA according to manufacturer's ELISA instructions. To visualize the NF-κB activation further, Electrophoretic Mobility Shift Assay (EMSA) was performed (Ghosh, S, and Karin, M., Cell, 2002, 109:S81-96; Young, S. H. et al. J. Biol Chem., 2001, 276:20781-20787; Lebron, F. et al. J Biol Chem., 2003, 278:25001-25008) with the nuclear protein. A double stranded probe that binds NF-κB (5′-[…]-3′, SANTA CRUZ BIOTECHNOLOGY, Santa Cruz, Calif.) was radio labeled with ^32P-ATP, and EMSA performed with 5 μg of nuclear extract. The EMSA reaction mixtures were incubated for 30 minutes at room temperature, and DNA-protein complexes were separated on 6% polyacrylamide gels and visualized by autoradiography. […] The nuclear extracts were analyzed for the protein content, and NF-κB activity analyzed using ELISA kit from ACTIVE MOTIF, Carlsbad, Calif.

[2] = test system: human monocyte cell line THP-1; experiment: NO synthesis in monocyte cell line; type: cell-based
From the text: NO levels are also reported to play an important role in the modulation of Th cell differentiation and polarization. Yamasaki et al. (Yamasaki, A. et al. Yonago Acta Medica, 1998, 44:7-15) and Taylor-Robinson et al. (Taylor-Robinson, A. W. et al. Eur. J. Immunol., 1994, 24:980-984) reported an inhibitory role of NO on Th1 cytokines while Bauer et al. (Bauer, H. et al., Immunol, 1997, 90:205-211) reported the same for Th1 as well as Th2 cytokines by NO from activated T cells. […] The enzyme iNOS produced a high output of NO from macrophages upon stimulation. […] The absence of iNOS induction by RR1 supports the conclusion that there is an insignificant increase in the production of NO. […] IFN-α, IFN-γ and TNF-α are known up-regulators of NO synthesis (Shin, J. Y. et al. Immunopharmcol. Immunotoxicol., 2002, 24:469-482; Hirazumi, A. and Furusawa, E. Phytother Res., 1999, 13:380-387).

[3] = test system: normal lymphocytes (NK, T and B cells); experiment: Activation of lymphocyte subsets, flow cytometry (CD69); type: cell-based, human
Experimental: Normal lymphocytes were treated with RR1 (0-100 μg/ml) for 24 hours at 37° C. in a CO2 incubator. The cells were stained with a panel of cell specific antibodies conjugated with different fluorochromes: CD3-FITC, CD16/56-PE, CD19-ECD, CD69-PC5 or CD8-FITC, CD4-PE, CD3-ECD, CD69-ECD. The stained cells were analyzed in a Coulter Elite flow cytometer in a 4-color assay. ***p<0.001.
Activation of Lymphocytes. Normal lymphocytes (10^6/ml) were treated with 0-100 μg of RR1 for 24 hours in a CO2 incubator maintained at 37° C. in RPMI medium. The cells were then stained with specific fluorochrome-conjugated monoclonal antibodies for 30 minutes at room temperature and analyzed in a Coulter Elite Flow Cytometer by four and five color immunotyping assay protocol of Alamo and Melnick (Alamo, A. L. and S. J. Melnick Cytometry, 2000, 42:363-370) and the percentage of activation of subsets of lymphocytes such as NK, T and B cells were calculated.

[4] = test system: HEK293 cells transfected with TLR4/CD14/MD2; experiment: TLR signaling, IL-8 ELISA; type: cell-based, human; details: HEK/TLR4/CD14/MD2, 24 hours
Experimental: (§1) TLR signaling. To determine the involvement of TLR signaling, parental HEK293 as well as HEK293 cells transfected with human TLR2, TLR6, TLR2/6 or TLR4/CD14/MD2 genes (cloned into pDUO plasmid), were used. These cells (0.5×10^6/ml) were incubated with 0-100 μg/ml of RR1 for 24 hours. Since these cells produce very low level of TNF-α and detectable levels of IL-8 upon activation, IL-8 secreted into the medium was analyzed using ELISA procedure. Incidentally, the IL-8 synthesis is also under the control of the transcription factor NF-κB.

[5] = test system: parental HEK293 cells; experiment: TLR signaling, IL-8 ELISA; type: cell-based, human; details: parental HEK, RR1 0-100 μg/ml, 24 hours
Experimental: as §1

[6] = test system: HEK293 cells transfected with TLR2; experiment: TLR signaling, IL-8 ELISA; type: cell-based, human; details: HEK/TLR2, 24 hours
Experimental: as §1

[7] = test system: normal lymphocytes; experiment: Quantification of cytokine and chemokine synthesis by ELISA; type: cell-based, human; details: at 100 pg/ml concentration

(1,4)-α-D-glucan [RR1]
time of stimulation at which NF-κB activity peaked ([1]; 100 μg/ml RR1, ELISA): 8 h
RR1 dose at which NF-κB activity reaches a plateau ([1]; 8 hours of stimulation): 500 to 1000 µg/mL and 500 µg/mL
NO levels with RR1 treatment [2]: did not induce any higher levels of NO
fold activation of NK cells ([3]; 100 μg/ml RR1): > 3 fold
activation of B cells ([3]; 100 μg/ml RR1, 24 hours): 39%
activation of NK cells ([3]; 100 μg/ml RR1, 24 hours): 331%
activation of T cells ([3]; 100 μg/ml RR1, 24 hours): 102%
IL-8 production [4]: did not induce IL-8 production
IL-8 production [5]: did not induce IL-8 production
IL-8 production [6]: did not induce IL-8 production
synthesis of IL-1β [7]: 1080 pg/mL
